Experimental data reported in publication PMC5431435, “A short artificial antimicrobial peptide shows potential to prevent or treat bone infections” (Scientific Reports, 2017).

What was measured:
[1] = system: human primary osteoblast-like cells; assay: Scratch assay (cell migration); format: cell-based
Procedure: (3) The effect of AMP2 on cell migration was assessed. Human primary osteoblast-like cells were seeded into 24-well plates and cultured in cultivation media. After reaching confluence, medium was removed and a cross scratch was made using a 10 µl pipette tip using a modified protocol. […] Using ImageJ software (version 1.4.8.; https://imagej.nih.gov/ij/) the diameter of the scratch was measured and the closure over time calculated (n = 3).

[2] = system: S. aureus (ATCC 29213); assay: Zone of inhibition test of PDLLA-coated titanium wires; format: cell-based, Staphylococcus aureus; settings: 10, 20, 30% w/w in poly(D,L-lactide) coating, n = 3
Procedure: Titanium wires (diameter 1 mm, Synthes, USA) were coated with Poly(D,L-lactide) (PDLLA, Boehringer Ingelheim, Germany) and incorporated AMP2 at three different concentrations: 10% w/w, 20% w/w, or 30% w/w. Gentamicin/PDLLA (10% w/w) or PDLLA coated wires served as control. Briefly, 100 mg PDLLA was solved in 1.5 ml ethyl acetate and the wires were coated in a dipping procedure. Details of the coating were described previously. Three nails of each group were placed on Mueller-Hinton agar plates plated with S. aureus (ATCC 29213) and the zone of inhibition (ZOI) was quantified after 1, 3, 7, and 14 days using ImageJ software.

[3] = system: S. epidermidis biofilms; assay: FISH of biofilm grown on polyurethane waver; format: cell-based, Staphylococcus epidermidis; settings: n = 10 pictures
Procedure: Fluorescence in situ hybridization (FISH) was used to visualize the effect of the AMP2 on a biofilm. S. epidermidis (PIA 8400) biofilm was grown on 5 × 8 mm polyurethane (PU) waver (Epurex Films, Germany) in the incubator at 37 °C for 72 hours under aerobic conditions. After biofilm formation, medium was replaced by MH^++ medium containing different concentrations of the AMP2 (4 or 8 µg/ml) or phosphate buffered saline as control. After further 24 hours of incubation on a rotation shaker, waver were removed, fixed and embedded in methylmethacrylate (Technovit 8100, Kulzer, Germany) and sectioned as described elsewhere. To visualize the biofilm, samples were stained with nucleic acid stain DAPI and the Cy3-labeled Staphylococcus-specific FISH-probe STAPHY (5′[…]3′, biomers, Germany) as published, [52]. A nonsense probe NON338 labeled in Cy5 was used to exclude unspecific probe binding. After incubation in a dark, humid chamber for 2 hours at 50 °C, the slides were rinsed with sterile water, dried, and mounted using Vectashield mounting medium (Vector Laboratories, Burlingame, CA). Image analysis was done using an epifluorescence microscope (Axioplan 2; Carl Zeiss, Jena, Germany) equipped with narrow band filter sets (AHF Analysentechnik, Germany). Image acquisition was performed with an AxioCam MRm (Zeiss, Germany) making use of the AxioVision 4.4 software. Digital image analysis was performed with the daime software. Per group 10 pictures were randomly chosen and analyzed.

[4] = system: S. aureus internalized in human primary osteoblast-like cells; assay: Effect against internalized bacteria; format: cell-based, Staphylococcus aureus; settings: CM with 1% FCS, n = 7
Procedure: Human primary osteoblast-like cells were cultivated in 24-well plates with cultivation medium until they reached a minimum confluence of 80%. For the experiment, cells were washed and S. aureus (ATCC 29213) in cultivation medium added (~2 × 10^7 cfu/ml). After an incubation of 45 minutes, extracellular bacteria were killed using 200 µg/ml gentamicin dissolved in CM with 10% FCS, without P/S. After 1 hour incubation, gentamicin solution was removed, cells washed three times and AMP2 (33 and 67 µg/ml) in CM with only 1% FCS + no P/S added for 4 and 24 hours. As reference, 7.5 µg/ml rifampicin was used. All incubation steps were done in an incubator with 37 °C, 95% humidity and 5% CO2. For determination of the internalized bacteria, cells were lysed and the supernatant plated on CA plates. Experiment were done with n = 7.

[5] = system: planktonic S. aureus; assay: MIC by isothermal microcalorimetry, planktonic bacteria; format: cell-based, Staphylococcus aureus; settings: all three tested bouillons (MH++, MH+, MH−), heat flow 24 hours, n = 3
Procedure: Mueller-Hinton II bouillon with adjusted cations (MH^++; BBL, Germany), Mueller-Hinton bouillon with low cations (MH^+; with 3-4 mg/l Ca^2+ and 5-6 mg/l Mg^2+; Oxoid, Germany) and Mueller-Hinton bouillon without cations (MH^-; Merck, Germany). AMP2 concentrations of 2-33 μg/ml were tested with the three different bouillons and gentamicin concentrations of 0.125-2 μg/ml were analyzed with MH^++. Staphylococcus aureus (ATCC 29213, 300 μl with 10^5 cfu/ml) was added to each microcalorimetry glass ampoule (Waters; […] The ampoules were hermetically sealed and heat flow (W) was measured for 24 hours in the calorimeter TAM III (TA Instruments, USA). […] ROBU […], Germany) in MH^++ bouillon at 37 °C in an aerobe atmosphere for 24 hours. […] Beads were washed again and added to the glass ampoule with fresh MH^++ bouillon. The total heat (J) was measured for 48 hours in the calorimeter. A concentration, which inhibits minimum 90% of biofilm, can be defined as the minimal biofilm inhibitory concentration (MICB). All samples were tested with n = 6.

[6] = system: human primary osteoblast-like cells; format: cell-based
Procedure: (1) For the cytotoxicity test, 1 × 10^4 cells were seeded in 48-well plates with cultivation medium (CM) DMEM/Ham’s F-12 (D/H; Biochrom, Germany) + 10% fetal calf serum (FCS; Biochrom, Germany) + 1% penicillin/streptomycin (P/S; Biochrom, Germany) + 0.05 mM L-ascorbic-2 phosphate (L-Asc) + 0.05 mM β-glycerolphosphate (β-Glyc) and incubated overnight at 37 °C, 5% CO2 and 95% relative humidity. After adding the AMPs (3–542 µg/ml - depending on the AMP) or gentamicin (8–1024 µg/ml) in CM with 1% FCS, without Pen/Strep, cells were cultured for three days. Cell viability was determined with an AlamarBlue® assay before adding the AMPs and after 3 days. Alkaline phosphatase activity was measured on day 3.
Alamar Blue® (Biozol, Germany) was done according to the manufacturer’s instruction.

[7] = 4 µg/ml AMP2, 24 h in MH++ on 72 h biofilm

## KRRWRIWLV [AMP2, 9mer cationic antimicrobial peptide … from an optimized peptide library]
[1]; 67 µg/ml AMP2
  migration after 24 hours: reduced the migration of cells
[1]; 67 µg/ml AMP2, 0.1% FCS, gap at 0 hours = 100%
  gap size after 48 hours: 71%
[1]; 133 µg/ml AMP2 (data not shown)
  migration after 24 hours: no migration was observed
[1]; 133 µg/ml AMP2, 0.1% FCS
  gap after 48 hours: still complete open
[1]; 4–33 µg/ml AMP2 (range also covers positive control and CM without AMP2), 0.1% FCS, gap at 0 hours = 100%
  free-area after 24 hours: 50–66%
[1]; AMP2 concentrations up to 33 µg/ml, 0.1% FCS, gap at 0 hours = 100%
  cell-free area after 48 hours: 12–28%
[2]
  Zone of Inhibition, activity of incorporated peptide: inhibited the growth of S. aureus in a dose dependent manner
[3]; [7]
  reduction of FISH-positive (Cy3) area: 86%
  reduction of the biofilm area (DAPI) compared to the untreated group: up to 76%
[3]; 8 µg/ml AMP2, 24 h in MH++ on 72 h biofilm
  reduction of FISH-positive (Cy3) area: 90%
[4]; 33 μg/ml, 4 h
  internalized bacteria compared to 0 μg/ml AMP [= 100%]: 39%
[4]; 33 μg/ml, 24 h
  internalized bacteria compared to 0 μg/ml AMP [= 100%]: 3%
[4]; 67 μg/ml, 4 h
  internalized bacteria compared to 0 μg/ml AMP [= 100%]: 16%
[4]; 67 μg/ml, 24 h
  internalized bacteria compared to 0 μg/ml AMP [= 100%]: 0.18%
[5]
  MIC (calorimetry): 8 µg/mL
[6]
  concentrations with no negative effect on cell viability: < 267 µg/mL
  concentrations with significant inhibition of viability compared to the control group: ≥ 267 µg/mL
